Measured values from patent US12497393B2, “β-lactam compound, use thereof and preparation method therefor” (priority 2020, dated 2025).
Converted amounts (≈) assume the structure as drawn. Like-named read-outs stand apart in the source and are kept apart here.

How the values were obtained:
Assay in all cases: Antibacterial activity MIC assay (two-fold dilution agar plating)
Format in all cases: cell-based
[1] = test system: Acinetobacter baumannii; conditions: for MIC: Acinetobacter baumannii, read-out: Minimal Inhibitory Concentration (MIC)
Procedure: (§1) Antibacterial Activity-Evaluating Method (MIC Assay)
(§2) In this study, the compounds of the present invention were tested for their antibacterial activities by using two-fold dilution agar plating method and Denley Multipoint Inoculator A400 according to the guidelines of the CLSI/NCCLS standard. The tested strains were amplified by hydrolyzed casein peptone (Mueller-Hinton Agar) broth and Brain and Heart Infusion. The strains used in this study were bacterial strains that were purchased from ATCC or clinically isolated in Chinese hospitals. Aztreonam, polymyxin or levofloxacin was used as positive control. The drugs were diluted with hydrolyzed casein peptone broth to the desired concentrations including 128.0, 64.0, 32.0, 16.0, 8.0, 4.0, 2.0, 1.0, 0.5, 0.25, 0.125, 0.06 and 0.03 μg/mL, and then placed respectively into each well and mixed thoroughly. After inoculation, the tested strains were incubated for 18 hours at a constant temperature of 35° C., and their growth levels were observed. The drug concentration with no microbial growth in the well was recorded as the lowest Minimal Inhibitory Concentration (MIC).

[2] = test system: Citrobacter freundii; conditions: Citrobacter freundii ATCC 43864; for MIC: ATCC43864, read-out: Minimal Inhibitory Concentration (MIC)
Procedure: as §1, §2

[3] = test system: Enterobacter aerogenes; conditions: Enterobacter aerogenes ATCC 13048; for MIC: Klebsiella aerogenes, ATCC13048, read-out: Minimal Inhibitory Concentration (MIC)
Procedure: as §1, §2

[4] = test system: Enterobacter cloacae; conditions: for MIC: read-out: Minimal Inhibitory Concentration (MIC)
Procedure: as §1, §2

[5] = test system: Escherichia coli; conditions: for MIC: Escherichia coli, read-out: Minimal Inhibitory Concentration (MIC)
Procedure: as §1, §2

[6] = test system: Klebsiella Pneumoniae; conditions: for MIC: Klebsiella pneumoniae, read-out: Minimal Inhibitory Concentration (MIC)
Procedure: as §1, §2

[7] = test system: Proteus mirabilis; conditions: for MIC: Proteus mirabilis, ATCC49565, Proteus mirabilis ATCC 49565, read-out: Minimal Inhibitory Concentration (MIC)
Procedure: as §1, §2

[8] = test system: Proteus vulgaris; conditions: for MIC: Proteus vulgaris, ATCC29905, Proteus vulgaris ATCC 29905, read-out: Minimal Inhibitory Concentration (MIC)
Procedure: as §1, §2

[9] = test system: Providencia rettgeri; conditions: for MIC: Providencia rettgeri, ATCC31052, Providencia rettgeri ATCC 31052, read-out: Minimal Inhibitory Concentration (MIC)
Procedure: as §1, §2

[10] = test system: Pseudomonas aeruginosa; conditions: for MIC: read-out: Minimal Inhibitory Concentration (MIC)
Procedure: as §1, §2

[11] = test system: Salmonella typhi; conditions: for MIC: Salmonella enterica, TYPHI, read-out: Minimal Inhibitory Concentration (MIC)
Procedure: as §1, §2

[12] = test system: Serratia marcescens; conditions: Serratia marcescens ATCC 21074; for MIC: ATCC21074, read-out: Minimal Inhibitory Concentration (MIC)
Procedure: as §1, §2

[13] = test system: Shigella flexneri; conditions: Shigella flexneri ATCC 12022; for MIC: ATCC12022, read-out: Minimal Inhibitory Concentration (MIC)
Procedure: as §1, §2

[14] = test system: Stenotrophomonas maltophilia; conditions: Stenotrophomonas maltophilia ATCC 13636; for MIC: ATCC13636, read-out: Minimal Inhibitory Concentration (MIC)
Procedure: as §1, §2

[15] = ATCC19606, Acinetobacter baumannii ATCC 19606
[16] = ATCC43560, Enterobacter cloacae ATCC 43560
[17] = Enterobacter cloacae CDC1000654
[18] = ATCC25922, Escherichia coli ATCC 25922, ESBLs(−)
[19] = ATCC35218, Escherichia coli ATCC 35218, ESBLs(+)
[20] = Escherichia coli 08-85, mcr-1(+)
[21] = Escherichia coli 13-43, mcr-1(+)
[22] = Escherichia coli 13-66, mcr-1(+)
[23] = Escherichia coli 16-1, ESBLs(+)
[24] = Escherichia coli 16-7, ESBLs(−)
[25] = Escherichia coli 17-R28, CRE, NDM-1(+)
[26] = Escherichia coli CDC1001728, NDM-1(+)
[27] = ATCC700603, Klebsiella Pneumoniae ATCC 700603, ESBLs(+)
[28] = ATCCBAA2146, Klebsiella Pneumoniae ATCC BAA-2146, NDM-1(+)
[29] = Klebsiella Pneumoniae 09-20, mcr-1(+)
[30] = Klebsiella Pneumoniae 16-2, ESBLs(−)
[31] = Klebsiella Pneumoniae 16-14, ESBLs(+)
[32] = Klebsiella Pneumoniae 17-R27, CRE
[33] = ATCC27853, Pseudomonas aeruginosa ATCC 27853

CC(C)[C@H](O/N=C(\C(=O)N[C@@H]1C(=O)N(OS(=O)(=O)O)C1(C)C)c1csc(N)n1)C(=O)O [Compound A-4]
MIC [1, 15]: 64 µg/mL (≈ 133 µM)
MIC ([1]; Acinetobacter baumannii 16-16): > 64 µg/mL
MIC ([1]; Acinetobacter baumannii 16-33): 32 µg/mL (≈ 66.7 µM)
MIC [2]: 0.12 µg/mL (≈ 0.25 µM)
MIC [3]: 0.5 µg/mL (≈ 1.04 µM)
MIC [4, 16]: 0.12 µg/mL (≈ 0.25 µM)
MIC [4, 17]: 1 µg/mL (≈ 2.09 µM)
MIC [5, 18]: 0.25 µg/mL (≈ 0.521 µM)
MIC [5, 19]: 0.12 µg/mL (≈ 0.25 µM)
MIC [5, 20]: 0.25 µg/mL (≈ 0.521 µM)
MIC [5, 21]: 0.25 µg/mL (≈ 0.521 µM)
MIC [5, 22]: 0.25 µg/mL (≈ 0.521 µM)
MIC [5, 23]: 0.12 µg/mL (≈ 0.25 µM)
MIC [5, 24]: 0.25 µg/mL (≈ 0.521 µM)
MIC [5, 25]: 8 µg/mL (≈ 16.7 µM)
MIC [5, 26]: 0.5 µg/mL (≈ 1.04 µM)
MIC [6, 27]: 2 µg/mL (≈ 4.17 µM)
MIC [6, 28]: 0.5 µg/mL (≈ 1.04 µM)
MIC [6, 29]: 0.12 µg/mL (≈ 0.25 µM)
MIC [6, 30]: 1 µg/mL (≈ 2.09 µM)
MIC [6, 31]: 0.25 µg/mL (≈ 0.521 µM)
MIC [6, 32]: 0.25 µg/mL (≈ 0.521 µM)
MIC [7]: ≤ 0.03 µg/mL
MIC [8]: ≤ 0.03 µg/mL
MIC [9]: ≤ 0.03 µg/mL
MIC [10, 33]: 8 µg/mL (≈ 16.7 µM)
MIC ([10]; Pseudomonas aeruginosa 16-11): 8 µg/mL (≈ 16.7 µM)
MIC ([10]; Pseudomonas aeruginosa PAO1): 4 µg/mL (≈ 8.34 µM)
MIC [11]: 0.12 µg/mL (≈ 0.25 µM)
MIC [12]: 0.25 µg/mL (≈ 0.521 µM)
MIC [13]: 0.25 µg/mL (≈ 0.521 µM)
MIC [14]: 8 µg/mL (≈ 16.7 µM)

CC(C)[C@@H](O/N=C(\C(=O)N[C@@H]1C(=O)N(OS(=O)(=O)O)C1(C)C)c1csc(N)n1)C(=O)O [Compound A-5]
MIC [1, 15]: > 64 µg/mL
MIC ([1]; Acinetobacter baumannii 16-16): > 64 µg/mL
MIC ([1]; Acinetobacter baumannii 16-33): > 64 µg/mL
MIC [2]: 16 µg/mL (≈ 33.4 µM)
MIC [3]: 32 µg/mL (≈ 66.7 µM)
MIC [4, 16]: 16 µg/mL (≈ 33.4 µM)
MIC [4, 17]: > 64 µg/mL
MIC [5, 18]: 16 µg/mL (≈ 33.4 µM)
MIC [5, 19]: 16 µg/mL (≈ 33.4 µM)
MIC [5, 20]: 32 µg/mL (≈ 66.7 µM)
MIC [5, 21]: 32 µg/mL (≈ 66.7 µM)
MIC [5, 22]: 16 µg/mL (≈ 33.4 µM)
MIC [5, 23]: 8 µg/mL (≈ 16.7 µM)
MIC [5, 24]: 32 µg/mL (≈ 66.7 µM)
MIC [5, 25]: > 64 µg/mL
MIC [5, 26]: 32 µg/mL (≈ 66.7 µM)
MIC [6, 27]: 64 µg/mL (≈ 133 µM)
MIC [6, 28]: > 64 µg/mL
MIC [6, 29]: 16 µg/mL (≈ 33.4 µM)
MIC [6, 30]: 32 µg/mL (≈ 66.7 µM)
MIC [6, 31]: 16 µg/mL (≈ 33.4 µM)
MIC [6, 32]: 32 µg/mL (≈ 66.7 µM)
MIC [7]: 1 µg/mL (≈ 2.09 µM)
MIC [8]: 4 µg/mL (≈ 8.34 µM)
MIC [9]: 4 µg/mL (≈ 8.34 µM)
MIC [10, 33]: > 64 µg/mL
MIC ([10]; Pseudomonas aeruginosa 16-11): > 64 µg/mL
MIC ([10]; Pseudomonas aeruginosa PAO1): > 64 µg/mL
MIC [11]: 32 µg/mL (≈ 66.7 µM)
MIC [12]: 32 µg/mL (≈ 66.7 µM)
MIC [13]: 64 µg/mL (≈ 133 µM)
MIC [14]: > 64 µg/mL

CC1(C)[C@H](NC(=O)/C(=N\OC2(C(=O)O)CC2)c2nsc(N)n2)C(=O)N1OS(=O)(=O)O [Compound A-6]
Minimal Inhibitory Concentration (MIC) ([1]; Acinetobacter baumannii 16-16): >64 µg/mL
Minimal Inhibitory Concentration (MIC) ([1]; Acinetobacter baumannii 16-33): 16 µg/mL
Minimal Inhibitory Concentration (MIC) ([1]; Acinetobacter baumannii ATCC 19606): 16 µg/mL
Minimal Inhibitory Concentration (MIC) [2]: 0.25 µg/mL
Minimal Inhibitory Concentration (MIC) [3]: 1 µg/mL
Minimal Inhibitory Concentration (MIC) ([4]; Enterobacter cloacae ATCC 43560): 0.5 µg/mL
Minimal Inhibitory Concentration (MIC) [4, 17]: 64 µg/mL
Minimal Inhibitory Concentration (MIC) [5, 20]: 4 µg/mL
Minimal Inhibitory Concentration (MIC) [5, 21]: 4 µg/mL
Minimal Inhibitory Concentration (MIC) [5, 22]: 4 µg/mL
Minimal Inhibitory Concentration (MIC) [5, 23]: 0.5 µg/mL
Minimal Inhibitory Concentration (MIC) [5, 24]: 0.5 µg/mL
Minimal Inhibitory Concentration (MIC) [5, 25]: >64 µg/mL
Minimal Inhibitory Concentration (MIC) ([5]; Escherichia coli ATCC 25922, ESBLs(−)): 0.5 µg/mL
Minimal Inhibitory Concentration (MIC) ([5]; Escherichia coli ATCC 35218, ESBLs(+)): 0.25 µg/mL
Minimal Inhibitory Concentration (MIC) [5, 26]: 4 µg/mL
Minimal Inhibitory Concentration (MIC) [6, 29]: 2 µg/mL
Minimal Inhibitory Concentration (MIC) [6, 30]: 0.5 µg/mL
Minimal Inhibitory Concentration (MIC) [6, 31]: 4 µg/mL
Minimal Inhibitory Concentration (MIC) ([6]; Klebsiella Pneumoniae ATCC 700603, ESBLs(+)): 64 µg/mL
Minimal Inhibitory Concentration (MIC) ([6]; Klebsiella Pneumoniae ATCC BAA-2146, NDM-1(+)): 32 µg/mL
Minimal Inhibitory Concentration (MIC) ([7]; Proteus mirabilis ATCC 49565): 1 µg/mL
Minimal Inhibitory Concentration (MIC) ([8]; Proteus vulgaris ATCC 29905): ≤0.03 µg/mL
Minimal Inhibitory Concentration (MIC) ([9]; Providencia rettgeri ATCC 31052): ≤0.03 µg/mL
Minimal Inhibitory Concentration (MIC) ([10]; Pseudomonas aeruginosa 16-11): 16 µg/mL
Minimal Inhibitory Concentration (MIC) ([10]; Pseudomonas aeruginosa ATCC 27853): 16 µg/mL
Minimal Inhibitory Concentration (MIC) ([10]; Pseudomonas aeruginosa PAO1): 8 µg/mL
Minimal Inhibitory Concentration (MIC) ([11]; Salmonella typhi H901): 0.5 µg/mL
Minimal Inhibitory Concentration (MIC) [12]: 1 µg/mL
Minimal Inhibitory Concentration (MIC) [13]: 0.06 µg/mL
Minimal Inhibitory Concentration (MIC) [14]: 32 µg/mL

CC1(C)[C@H](NC(=O)/C(=N\OC2(C(=O)O)CCCCC2)c2csc(N)n2)C(=O)N1OS(=O)(=O)O [Compound A-7]
MIC [1, 15]: 32 µg/mL (≈ 63.3 µM)
MIC ([1]; Acinetobacter baumannii 16-16): > 64 µg/mL
MIC ([1]; Acinetobacter baumannii 16-33): 32 µg/mL (≈ 63.3 µM)
MIC [2]: 2 µg/mL (≈ 3.96 µM)
MIC [3]: 4 µg/mL (≈ 7.91 µM)
MIC [4, 16]: 1 µg/mL (≈ 1.98 µM)
MIC [4, 17]: 16 µg/mL (≈ 31.6 µM)
MIC [5, 18]: 4 µg/mL (≈ 7.91 µM)
MIC [5, 19]: 1 µg/mL (≈ 1.98 µM)
MIC [5, 20]: 2 µg/mL (≈ 3.96 µM)
MIC [5, 21]: 2 µg/mL (≈ 3.96 µM)
MIC [5, 22]: 2 µg/mL (≈ 3.96 µM)
MIC [5, 23]: 1 µg/mL (≈ 1.98 µM)
MIC [5, 24]: 2 µg/mL (≈ 3.96 µM)
MIC [5, 25]: 64 µg/mL (≈ 127 µM)
MIC [5, 26]: 2 µg/mL (≈ 3.96 µM)
MIC [6, 27]: 8 µg/mL (≈ 15.8 µM)
MIC [6, 28]: 8 µg/mL (≈ 15.8 µM)
MIC [6, 29]: 2 µg/mL (≈ 3.96 µM)
MIC [6, 30]: 2 µg/mL (≈ 3.96 µM)
MIC [6, 31]: 2 µg/mL (≈ 3.96 µM)
MIC [6, 32]: 4 µg/mL (≈ 7.91 µM)
MIC [7]: 0.12 µg/mL (≈ 0.237 µM)
MIC [8]: 0.25 µg/mL (≈ 0.495 µM)
MIC [9]: 0.25 µg/mL (≈ 0.495 µM)
MIC [10, 33]: 32 µg/mL (≈ 63.3 µM)
MIC ([10]; Pseudomonas aeruginosa 16-11): > 64 µg/mL
MIC ([10]; Pseudomonas aeruginosa PAO1): 32 µg/mL (≈ 63.3 µM)
MIC [11]: 4 µg/mL (≈ 7.91 µM)
MIC [12]: 2 µg/mL (≈ 3.96 µM)
MIC [13]: 2 µg/mL (≈ 3.96 µM)
MIC [14]: 16 µg/mL (≈ 31.6 µM)
